# Source: paper PMC10177496, “An Isoxazoloquinone Derivative Inhibits Tumor Growth by Targeting STAT3 and Triggering Its Ubiquitin-Dependent Degradation” (Cancers, 2023)
# Target: STAT3 (Homo sapiens, UniProt P40763)
# Assay: biotin pull-down (MDA-MB-231), LC/MS identification and STAT3 Western blot
# Format: cell-based
# Excerpt: biotin pull-down (MDA-MB-231), LC/MS identification and STAT3 Western blot on STAT3 | identified the proteins that bind to biotin–ZSW specifically using LC/MS. We determined that STAT3 was specifically stripped
# STAT3, sequence (P40763 2-770): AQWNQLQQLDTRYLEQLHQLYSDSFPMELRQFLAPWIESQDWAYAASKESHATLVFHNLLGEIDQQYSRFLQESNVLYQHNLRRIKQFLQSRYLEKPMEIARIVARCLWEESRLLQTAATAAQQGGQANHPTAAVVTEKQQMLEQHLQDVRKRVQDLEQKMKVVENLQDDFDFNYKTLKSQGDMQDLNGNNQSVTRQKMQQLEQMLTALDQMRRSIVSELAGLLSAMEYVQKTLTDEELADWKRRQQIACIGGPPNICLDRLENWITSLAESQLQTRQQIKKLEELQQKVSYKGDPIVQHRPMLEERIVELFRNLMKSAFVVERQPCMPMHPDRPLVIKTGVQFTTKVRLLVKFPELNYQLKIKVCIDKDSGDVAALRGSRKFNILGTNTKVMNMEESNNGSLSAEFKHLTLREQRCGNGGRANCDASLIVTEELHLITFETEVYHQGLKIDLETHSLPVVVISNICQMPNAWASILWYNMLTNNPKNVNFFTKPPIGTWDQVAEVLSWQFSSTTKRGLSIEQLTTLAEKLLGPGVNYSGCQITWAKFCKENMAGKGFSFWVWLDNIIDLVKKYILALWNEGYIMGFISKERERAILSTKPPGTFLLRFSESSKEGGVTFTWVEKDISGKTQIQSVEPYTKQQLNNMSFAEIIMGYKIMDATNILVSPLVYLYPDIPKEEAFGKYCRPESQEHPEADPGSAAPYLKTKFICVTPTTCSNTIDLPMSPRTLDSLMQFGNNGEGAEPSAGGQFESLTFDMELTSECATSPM
smiles,measurement,value
COc1cc(-c2noc3c2C(=O)c2cccnc2C3=O)cc(OC)c1OCCCOC(=O)CCCCC1SCC2NC(=O)NC21 (stereo not shown) [biotin–ZSW],"biotin pull-down (MDA-MB-231), LC/MS identification and STAT3 Western blot",identified the proteins that bind to biotin–ZSW specifically using LC/MS. We determined that STAT3 was specifically stripped
